Data: ChEMBL document CHEMBL5653628, “Selective JAK3 Inhibitors with a Covalent Reversible Binding Mode Targeting a New Induced Fit Binding Pocket” (Cell Chem Biol, 2016)
Values belong to the compound of their own block, whether it stands above or below them. Calls of active or inactive are those of the source. The calls are words filed in the database; no cut-off is given here.

What was measured:
Homo sapiens = species on record: Homo sapiens; experiment: Inhibition of AMPK (unknown origin) at 1 uM relative to control
[1] = target: T1, Tyrosine-protein kinase JAK3 (Homo sapiens, UniProt P52333)
T1 sequence (P52333 whole entry): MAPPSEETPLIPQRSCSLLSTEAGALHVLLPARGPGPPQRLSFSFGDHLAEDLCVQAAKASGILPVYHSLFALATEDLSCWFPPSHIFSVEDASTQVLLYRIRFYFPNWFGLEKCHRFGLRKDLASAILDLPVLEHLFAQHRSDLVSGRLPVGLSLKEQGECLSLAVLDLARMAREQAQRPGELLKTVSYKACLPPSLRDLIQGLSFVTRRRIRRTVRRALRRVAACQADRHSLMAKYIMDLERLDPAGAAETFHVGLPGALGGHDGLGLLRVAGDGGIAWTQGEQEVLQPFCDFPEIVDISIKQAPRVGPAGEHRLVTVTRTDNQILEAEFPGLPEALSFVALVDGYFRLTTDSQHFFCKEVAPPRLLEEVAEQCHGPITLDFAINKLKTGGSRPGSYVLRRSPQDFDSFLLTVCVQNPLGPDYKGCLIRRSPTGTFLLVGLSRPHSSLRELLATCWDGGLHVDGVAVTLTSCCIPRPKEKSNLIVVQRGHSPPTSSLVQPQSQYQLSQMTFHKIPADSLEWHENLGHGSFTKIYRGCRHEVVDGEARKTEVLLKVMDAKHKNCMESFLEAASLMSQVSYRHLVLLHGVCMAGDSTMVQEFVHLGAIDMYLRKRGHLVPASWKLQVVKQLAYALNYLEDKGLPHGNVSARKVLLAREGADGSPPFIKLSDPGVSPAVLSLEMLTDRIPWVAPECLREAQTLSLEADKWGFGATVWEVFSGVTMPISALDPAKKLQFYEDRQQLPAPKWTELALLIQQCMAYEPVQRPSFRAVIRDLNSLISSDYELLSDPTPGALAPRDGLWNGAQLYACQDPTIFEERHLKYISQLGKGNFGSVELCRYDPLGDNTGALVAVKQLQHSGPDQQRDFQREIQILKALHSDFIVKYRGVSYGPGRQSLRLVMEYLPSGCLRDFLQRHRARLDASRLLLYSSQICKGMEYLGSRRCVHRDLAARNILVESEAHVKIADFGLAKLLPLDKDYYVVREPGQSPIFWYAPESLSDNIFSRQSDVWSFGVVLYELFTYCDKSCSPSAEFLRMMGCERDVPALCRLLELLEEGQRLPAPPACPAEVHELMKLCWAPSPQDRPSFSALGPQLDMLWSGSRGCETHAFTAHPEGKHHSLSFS
Description: Inhibition of JAK3 (unknown origin) in presence of ATP by radiometric assay

[2] = target: Tyrosine-protein kinase BTK (Homo sapiens, UniProt Q06187); experiment: Inhibition of BTK (unknown origin) by trFRET binding assay
[3] = target: Fibroblast growth factor receptor 1 (Homo sapiens, UniProt P11362); experiment: Inhibition of FGFR1 (unknown origin) by trFRET binding assay
[4] = target: G protein-coupled receptor kinase 5 (Homo sapiens, UniProt P34947); experiment: Inhibition of GRK5 (unknown origin) by trFRET binding assay
[5] = target: T1, Tyrosine-protein kinase JAK3; experiment: Inhibition of JAK3 (unknown origin) by trFRET binding assay
[6] = target: Leukocyte tyrosine kinase receptor (Homo sapiens, UniProt P29376); experiment: Inhibition of LTK (unknown origin) by trFRET binding assay
[7] = target: Mitogen-activated protein kinase kinase kinase kinase 2 (Homo sapiens, UniProt Q12851); experiment: Inhibition of MAP4K2 (unknown origin) by trFRET binding assay
[8] = target: Proto-oncogene tyrosine-protein kinase receptor Ret (Homo sapiens, UniProt P07949); experiment: Inhibition of RET (unknown origin) by trFRET binding assay
[9] = target: Serine/threonine-protein kinase 33 (Homo sapiens, UniProt Q9BYT3); experiment: Inhibition of STK33 (unknown origin) by trFRET binding assay
[10] = target: Tyrosine-protein kinase Blk (Homo sapiens) (UniProt P51451); conditions: dose 100.0 nM
Description: Inhibition of BLK (unknown origin) at 100 nM relative to control

[11] = tested on: Epidermal growth factor receptor (Homo sapiens), P00533 [UNDEFINED MUTATION]; conditions: dose 100.0 nM
Description: Inhibition of EGFR d747-752/P753S double mutant (unknown origin) at 100 nM relative to control

[12] = target: Tyrosine-protein kinase ITK/TSK (Homo sapiens) (UniProt Q08881); conditions: dose 100.0 nM
Description: Inhibition of ITK (unknown origin) at 100 nM relative to control

[13] = target: Tyrosine-protein kinase JAK2 (Homo sapiens) (UniProt O60674); conditions: dose 100.0 nM
Description: Inhibition of JAK2 (unknown origin) at 100 nM relative to control

[14] = target: T2, Tyrosine-protein kinase JAK3 (Homo sapiens) (UniProt P52333); conditions: dose 100.0 nM
T2 sequence (whole entry): T1 sequence (P52333 whole entry)
Description: Inhibition of JAK3 (unknown origin) at 100 nM relative to control

[15] = tested on: Leucine-rich repeat serine/threonine-protein kinase 2 (Homo sapiens), Q5S007 [G2019S]; conditions: dose 100.0 nM
[16] = tested on: Leucine-rich repeat serine/threonine-protein kinase 2 (Homo sapiens), Q5S007 [I2020T]; conditions: dose 100.0 nM
[17] = tested on: Leucine-rich repeat serine/threonine-protein kinase 2 (Homo sapiens), Q5S007 [R1441C]; conditions: dose 100.0 nM
[18] = target: Leucine-rich repeat serine/threonine-protein kinase 2 (Homo sapiens) (UniProt Q5S007); conditions: dose 100.0 nM
Description: Inhibition of wild-type LRRK2 (unknown origin) at 100 nM relative to control

[19] = target: Mitogen-activated protein kinase kinase kinase 11 (Homo sapiens) (UniProt Q16584); conditions: dose 100.0 nM
Description: Inhibition of MAP3K11 (unknown origin) at 100 nM relative to control

[20] = target: Mitogen-activated protein kinase kinase kinase kinase 2 (Homo sapiens) (UniProt Q12851); conditions: dose 100.0 nM
Description: Inhibition of MAP4K2 (unknown origin) at 100 nM relative to control

[21] = target: MAP kinase-activated protein kinase 2 (Homo sapiens) (UniProt P49137); conditions: dose 100.0 nM
Description: Inhibition of MAPKAPK2 (unknown origin) at 100 nM relative to control

[22] = target: MAP kinase-activated protein kinase 5 (Homo sapiens) (UniProt Q8IW41); conditions: dose 100.0 nM
Description: Inhibition of MAPKAPK5 (unknown origin) at 100 nM relative to control

[23] = target: Misshapen-like kinase 1 (Homo sapiens) (UniProt Q8N4C8); conditions: dose 100.0 nM
Description: Inhibition of MINK1 (unknown origin) at 100 nM relative to control

[24] = target: Muscle, skeletal receptor tyrosine-protein kinase (Homo sapiens) (UniProt O15146); conditions: dose 100.0 nM
Description: Inhibition of MUSK (unknown origin) at 100 nM relative to control

[25] = target: Protein kinase C beta type (Homo sapiens) (UniProt P05771); conditions: dose 100.0 nM
Description: Inhibition of PKC-beta2 (unknown origin) at 100 nM relative to control

[26] = target: Protein kinase C delta type (Homo sapiens) (UniProt Q05655); conditions: dose 100.0 nM
Description: Inhibition of PKC-delta (unknown origin) at 100 nM relative to control

[27] = target: Serine/threonine-protein kinase N2 (Homo sapiens) (UniProt Q16513); conditions: dose 100.0 nM
Description: Inhibition of PRK2 (unknown origin) at 100 nM relative to control

[28] = target: Rho-associated protein kinase 1 (Homo sapiens) (UniProt Q13464); conditions: dose 100.0 nM
Description: Inhibition of ROCK1 (unknown origin) at 100 nM relative to control

[29] = target: Ribosomal protein S6 kinase alpha-2 (Homo sapiens) (UniProt Q15349); conditions: dose 100.0 nM
Description: Inhibition of RPS6KA2 (unknown origin) at 100 nM relative to control

[30] = target: Ribosomal protein S6 kinase alpha-6 (Homo sapiens) (UniProt Q9UK32); conditions: dose 100.0 nM
Description: Inhibition of RPS6KA6 (unknown origin) at 100 nM relative to control

[31] = target: Non-receptor tyrosine-protein kinase TNK1 (Homo sapiens) (UniProt Q13470); conditions: dose 100.0 nM
Description: Inhibition of TNK1 (unknown origin) at 100 nM relative to control

[32] = target: Vascular endothelial growth factor receptor 2 (Homo sapiens, UniProt P35968); conditions: dose 100.0 nM
Description: Inhibition of VEGFR2 (unknown origin) at 100 nM relative to control

[33] = tested on: Epidermal growth factor receptor (Homo sapiens), P00533 [UNDEFINED MUTATION]; conditions: dose 500.0 nM
Description: Inhibition of EGFR d747-752/P753S double mutant (unknown origin) at 500 nM relative to control

[34] = target: T2, Tyrosine-protein kinase JAK3 (Homo sapiens); conditions: dose 500.0 nM
Description: Inhibition of JAK3 (unknown origin) at 500 nM relative to control

CD4+ve Th [35] = conditions: Homo sapiens, dose 50-100 nM, time 1.5 hrs
CD4+ve Th [36] = conditions: Homo sapiens, dose <= 1000.0 nM, time 1.5 hrs
CD4+ve Th [37] = conditions: Homo sapiens, dose <= 1000.0 nM, time 1.5 hrs; remark: listed apart in the source
cells [38] = conditions: Homo sapiens, CD4+ve Th, 1.5 h, read-out: INH
cells [39] = conditions: Homo sapiens, CD4+ve Th, 1.5 h, read-out: INH; remark: listed apart in the source
Protein kinase C (PKC) = experiment: Inhibition of PKC (unknown origin); type: protein assay, Homo sapiens
[40] = target: Glycogen synthase kinase-3 beta (Homo sapiens, UniProt P49841); experiment: Inhibition of GSK3beta (unknown origin)
[41] = target: T3, Tyrosine-protein kinase Fyn (Homo sapiens, UniProt P06241); experiment: Inhibition of FYN (unknown origin) by trFRET binding assay
Target sequence in this assay (P06241 whole entry): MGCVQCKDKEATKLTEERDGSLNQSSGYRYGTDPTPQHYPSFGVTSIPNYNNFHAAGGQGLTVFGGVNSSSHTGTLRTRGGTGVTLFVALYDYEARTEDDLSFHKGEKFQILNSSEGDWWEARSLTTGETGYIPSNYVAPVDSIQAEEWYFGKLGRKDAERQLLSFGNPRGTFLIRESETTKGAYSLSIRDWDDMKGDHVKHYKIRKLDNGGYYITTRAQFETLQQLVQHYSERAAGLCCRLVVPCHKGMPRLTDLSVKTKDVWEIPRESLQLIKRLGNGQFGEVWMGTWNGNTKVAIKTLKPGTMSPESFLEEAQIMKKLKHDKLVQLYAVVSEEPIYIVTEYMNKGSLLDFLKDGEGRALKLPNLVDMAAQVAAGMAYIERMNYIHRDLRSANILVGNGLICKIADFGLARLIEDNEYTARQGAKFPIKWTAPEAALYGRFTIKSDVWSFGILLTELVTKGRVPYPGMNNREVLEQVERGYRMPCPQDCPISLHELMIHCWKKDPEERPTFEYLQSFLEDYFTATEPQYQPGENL

[42] = target: Dual specificity protein kinase CLK3 (Homo sapiens) (UniProt P49761); conditions: dose 500.0 nM
Description: Inhibition of CLK3 (unknown origin) at 500 nM relative to control

[43] = target: Tyrosine-protein kinase CSK (Homo sapiens) (UniProt P41240); conditions: dose 500.0 nM
Description: Inhibition of CSK (unknown origin) at 500 nM relative to control

[44] = target: Receptor tyrosine-protein kinase erbB-4 (Homo sapiens) (UniProt Q15303); conditions: dose 500.0 nM
Description: Inhibition of ERBB4 (unknown origin) at 500 nM relative to control

[45] = tested on: Fibroblast growth factor receptor 3 (Homo sapiens), P22607 [G697C]; conditions: dose 500.0 nM
[46] = target: T3, Tyrosine-protein kinase Fyn; conditions: dose 500.0 nM
Description: Inhibition of wild-type FYN (unknown origin) at 500 nM relative to control

[47] = target: G protein-coupled receptor kinase 6 (Homo sapiens) (UniProt P43250); conditions: dose 500.0 nM
Description: Inhibition of GRK6 (unknown origin) at 500 nM relative to control

[48] = target: Serine/threonine-protein kinase haspin (Homo sapiens) (UniProt Q8TF76); conditions: dose 500.0 nM
Description: Inhibition of GSG2 (unknown origin) at 500 nM relative to control

[49] = target: Homeodomain-interacting protein kinase 1 (Homo sapiens) (UniProt Q86Z02); conditions: dose 500.0 nM
Description: Inhibition of HIPK1 (unknown origin) at 500 nM relative to control

[50] = tested on: Mast/stem cell growth factor receptor Kit (Homo sapiens), P10721 [V559D,V654A]; conditions: dose 500.0 nM
[51] = target: MAP kinase-activated protein kinase 2 (Homo sapiens) (UniProt P49137); conditions: dose 500.0 nM
Description: Inhibition of MAPKAPK2 (unknown origin) at 500 nM relative to control

[52] = target: MAP kinase-activated protein kinase 3 (Homo sapiens) (UniProt Q16644); conditions: dose 500.0 nM
Description: Inhibition of MAPKAPK3 (unknown origin) at 500 nM relative to control

[53] = target: Hepatocyte growth factor-like protein (Homo sapiens) (UniProt P26927); conditions: dose 500.0 nM
Description: Inhibition of MST1 (unknown origin) at 500 nM relative to control

[54] = target: Serine/threonine-protein kinase Nek6 (Homo sapiens) (UniProt Q9HC98); conditions: dose 500.0 nM
Description: Inhibition of NEK6 (unknown origin) at 500 nM relative to control

[55] = target: Mitogen-activated protein kinase kinase kinase kinase 4 (Homo sapiens) (UniProt O95819); conditions: dose 500.0 nM
Description: Inhibition of NIK (unknown origin) at 500 nM relative to control

[56] = tested on: NPM/ALK (Nucleophosmin/ALK tyrosine kinase receptor) (Homo sapiens), Q9UM73+P06748 [F1174L]; conditions: dose 500.0 nM
Description: Inhibition of NPM1ALK F1174L mutant (unknown origin) at 500 nM relative to control

[57] = target: Mitogen-activated protein kinase 14 (Homo sapiens) (UniProt Q16539); conditions: dose 500.0 nM
Description: Inhibition of p38-alpha (unknown origin) at 500 nM relative to control

[58] = target: Serine/threonine-protein kinase D1 (Homo sapiens) (UniProt Q15139); conditions: dose 500.0 nM
Description: Inhibition of PKC-mu (unknown origin) at 500 nM relative to control

[59] = target: Macrophage-stimulating protein receptor (Homo sapiens) (UniProt Q04912); conditions: dose 500.0 nM
Description: Inhibition of RON (unknown origin) at 500 nM relative to control

[60] = target: STE20/SPS1-related proline-alanine-rich protein kinase (Homo sapiens) (UniProt Q9UEW8); conditions: dose 500.0 nM
Description: Inhibition of STK39 (unknown origin) at 500 nM relative to control

[61] = target: Phosphatidylinositol 3-kinase catalytic subunit type 3 (Homo sapiens) (UniProt Q8NEB9); conditions: dose 500.0 nM
Description: Inhibition of PIK3C3 (unknown origin) at 500 nM relative to control

[62] = target: Phosphatidylinositol 4,5-bisphosphate 3-kinase catalytic subunit gamma isoform (Homo sapiens) (UniProt P48736); conditions: dose 500.0 nM
Description: Inhibition of PIK3CG (unknown origin) at 500 nM relative to control

[63] = target: T2, Tyrosine-protein kinase JAK3 (Homo sapiens); conditions: HeLa, dose 100.0 nM, time 2.0 hrs
[64] = target: T2, Tyrosine-protein kinase JAK3 (Homo sapiens); conditions: HeLa, dose 100.0 nM, time 1.0 hrs

Chain of Epidermal growth factor receptor (Homo sapiens), P00533 [UNDEFINED MUTATION] (P00533 whole entry, looked up, change not shown): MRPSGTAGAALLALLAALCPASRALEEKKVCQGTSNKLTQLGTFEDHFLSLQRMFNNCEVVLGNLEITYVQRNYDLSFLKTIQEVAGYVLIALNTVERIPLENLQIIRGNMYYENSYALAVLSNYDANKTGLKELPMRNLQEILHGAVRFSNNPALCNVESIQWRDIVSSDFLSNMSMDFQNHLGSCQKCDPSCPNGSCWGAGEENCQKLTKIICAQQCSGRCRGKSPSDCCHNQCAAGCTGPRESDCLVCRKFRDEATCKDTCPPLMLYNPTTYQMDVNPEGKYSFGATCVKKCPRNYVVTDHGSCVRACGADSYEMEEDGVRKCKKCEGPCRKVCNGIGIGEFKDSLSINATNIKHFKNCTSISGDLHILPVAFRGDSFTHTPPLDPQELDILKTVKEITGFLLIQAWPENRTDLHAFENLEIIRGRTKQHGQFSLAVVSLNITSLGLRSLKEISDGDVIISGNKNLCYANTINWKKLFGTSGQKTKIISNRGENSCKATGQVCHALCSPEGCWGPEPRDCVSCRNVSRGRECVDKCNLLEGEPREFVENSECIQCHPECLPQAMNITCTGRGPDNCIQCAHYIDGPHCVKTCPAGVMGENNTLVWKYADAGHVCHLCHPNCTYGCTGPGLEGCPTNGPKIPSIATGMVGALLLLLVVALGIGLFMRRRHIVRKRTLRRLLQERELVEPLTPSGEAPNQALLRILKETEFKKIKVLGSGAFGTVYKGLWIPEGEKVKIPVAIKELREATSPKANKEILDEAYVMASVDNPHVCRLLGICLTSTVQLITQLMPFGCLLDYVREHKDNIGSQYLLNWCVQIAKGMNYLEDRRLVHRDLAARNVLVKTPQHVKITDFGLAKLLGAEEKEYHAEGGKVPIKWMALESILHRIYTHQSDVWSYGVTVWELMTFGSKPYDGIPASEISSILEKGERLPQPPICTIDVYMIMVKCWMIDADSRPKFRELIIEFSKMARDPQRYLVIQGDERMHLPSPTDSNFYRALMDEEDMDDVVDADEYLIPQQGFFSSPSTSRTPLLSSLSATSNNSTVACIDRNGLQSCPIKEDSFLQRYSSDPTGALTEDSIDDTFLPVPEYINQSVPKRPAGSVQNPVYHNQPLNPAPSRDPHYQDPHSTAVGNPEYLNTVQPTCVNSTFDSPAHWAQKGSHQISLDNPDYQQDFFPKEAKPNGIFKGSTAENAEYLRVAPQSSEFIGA
Chain of MAP kinase-activated protein kinase 2 (Homo sapiens) (P49137 whole entry, looked up): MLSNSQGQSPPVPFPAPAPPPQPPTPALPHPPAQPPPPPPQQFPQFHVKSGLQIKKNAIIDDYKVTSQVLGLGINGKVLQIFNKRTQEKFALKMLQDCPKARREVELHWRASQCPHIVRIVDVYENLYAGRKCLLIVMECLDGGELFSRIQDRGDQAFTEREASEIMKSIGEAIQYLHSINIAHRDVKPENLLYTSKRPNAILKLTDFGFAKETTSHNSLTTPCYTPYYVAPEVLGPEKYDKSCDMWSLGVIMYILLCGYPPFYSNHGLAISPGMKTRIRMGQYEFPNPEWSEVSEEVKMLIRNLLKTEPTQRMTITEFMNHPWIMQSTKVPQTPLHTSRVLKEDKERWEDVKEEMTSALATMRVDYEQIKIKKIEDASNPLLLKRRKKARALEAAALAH
Chain of Ribosomal protein S6 kinase alpha-6 (Homo sapiens) (Q9UK32 whole entry): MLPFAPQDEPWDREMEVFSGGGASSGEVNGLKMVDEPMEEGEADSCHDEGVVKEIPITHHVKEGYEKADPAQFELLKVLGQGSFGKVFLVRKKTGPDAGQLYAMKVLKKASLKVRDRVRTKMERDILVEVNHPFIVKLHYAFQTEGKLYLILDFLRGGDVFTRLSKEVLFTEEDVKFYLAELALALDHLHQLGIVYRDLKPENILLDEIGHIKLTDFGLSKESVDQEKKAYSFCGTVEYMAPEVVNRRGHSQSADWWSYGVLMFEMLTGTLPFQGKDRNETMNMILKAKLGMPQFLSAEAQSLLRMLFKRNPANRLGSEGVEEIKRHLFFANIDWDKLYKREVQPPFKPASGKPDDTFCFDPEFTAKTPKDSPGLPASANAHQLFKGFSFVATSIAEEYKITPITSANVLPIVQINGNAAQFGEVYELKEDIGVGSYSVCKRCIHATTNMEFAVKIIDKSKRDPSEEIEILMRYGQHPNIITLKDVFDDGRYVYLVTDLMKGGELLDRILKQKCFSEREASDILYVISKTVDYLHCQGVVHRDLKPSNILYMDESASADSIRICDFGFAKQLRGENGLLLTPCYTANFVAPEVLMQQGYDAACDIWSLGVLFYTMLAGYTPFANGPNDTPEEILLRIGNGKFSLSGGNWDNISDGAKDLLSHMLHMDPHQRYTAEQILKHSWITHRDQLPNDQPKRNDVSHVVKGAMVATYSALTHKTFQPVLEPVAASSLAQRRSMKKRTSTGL
Chain of Tyrosine-protein kinase BTK (Q06187 whole entry): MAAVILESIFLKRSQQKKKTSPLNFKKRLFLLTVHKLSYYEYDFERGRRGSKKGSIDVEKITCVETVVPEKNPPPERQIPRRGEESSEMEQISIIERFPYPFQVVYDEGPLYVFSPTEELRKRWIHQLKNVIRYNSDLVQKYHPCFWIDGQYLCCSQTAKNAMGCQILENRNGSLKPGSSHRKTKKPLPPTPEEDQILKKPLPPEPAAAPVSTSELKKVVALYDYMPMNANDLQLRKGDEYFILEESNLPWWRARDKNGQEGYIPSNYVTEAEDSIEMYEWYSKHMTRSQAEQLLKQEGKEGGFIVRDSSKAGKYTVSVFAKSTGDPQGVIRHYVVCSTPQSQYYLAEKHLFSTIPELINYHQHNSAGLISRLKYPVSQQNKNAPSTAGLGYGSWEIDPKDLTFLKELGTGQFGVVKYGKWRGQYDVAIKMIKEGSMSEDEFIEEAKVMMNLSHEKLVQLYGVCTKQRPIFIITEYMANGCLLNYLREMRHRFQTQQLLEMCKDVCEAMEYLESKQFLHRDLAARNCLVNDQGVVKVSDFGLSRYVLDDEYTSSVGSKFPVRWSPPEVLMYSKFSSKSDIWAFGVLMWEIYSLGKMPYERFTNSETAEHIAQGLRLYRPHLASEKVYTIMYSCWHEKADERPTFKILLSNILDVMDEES
Chain of Tyrosine-protein kinase CSK (Homo sapiens) (P41240 2-450 limits assumed): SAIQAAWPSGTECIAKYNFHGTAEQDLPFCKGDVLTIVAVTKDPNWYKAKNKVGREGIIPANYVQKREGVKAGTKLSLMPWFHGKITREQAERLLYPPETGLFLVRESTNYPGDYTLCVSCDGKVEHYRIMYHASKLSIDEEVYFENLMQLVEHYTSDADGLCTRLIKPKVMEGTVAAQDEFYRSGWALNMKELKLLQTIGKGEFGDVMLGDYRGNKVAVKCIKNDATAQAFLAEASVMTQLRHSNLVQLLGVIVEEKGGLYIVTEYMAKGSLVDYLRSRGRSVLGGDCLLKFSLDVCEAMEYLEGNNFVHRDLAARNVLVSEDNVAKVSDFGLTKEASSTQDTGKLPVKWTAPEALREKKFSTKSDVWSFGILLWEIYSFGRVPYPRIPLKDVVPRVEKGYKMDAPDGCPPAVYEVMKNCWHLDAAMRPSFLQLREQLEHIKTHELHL
Chain of Serine/threonine-protein kinase Nek6 (Homo sapiens) (Q9HC98 whole entry): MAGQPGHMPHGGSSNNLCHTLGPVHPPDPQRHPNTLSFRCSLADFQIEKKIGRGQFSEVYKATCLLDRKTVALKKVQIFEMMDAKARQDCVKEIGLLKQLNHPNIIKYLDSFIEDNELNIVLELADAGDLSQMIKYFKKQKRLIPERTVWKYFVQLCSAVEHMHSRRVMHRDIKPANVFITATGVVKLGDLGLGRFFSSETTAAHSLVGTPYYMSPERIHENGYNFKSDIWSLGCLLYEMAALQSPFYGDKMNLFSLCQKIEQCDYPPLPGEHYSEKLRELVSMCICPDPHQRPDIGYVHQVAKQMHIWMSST
Chain of MAP kinase-activated protein kinase 5 (Homo sapiens) (Q8IW41 whole entry): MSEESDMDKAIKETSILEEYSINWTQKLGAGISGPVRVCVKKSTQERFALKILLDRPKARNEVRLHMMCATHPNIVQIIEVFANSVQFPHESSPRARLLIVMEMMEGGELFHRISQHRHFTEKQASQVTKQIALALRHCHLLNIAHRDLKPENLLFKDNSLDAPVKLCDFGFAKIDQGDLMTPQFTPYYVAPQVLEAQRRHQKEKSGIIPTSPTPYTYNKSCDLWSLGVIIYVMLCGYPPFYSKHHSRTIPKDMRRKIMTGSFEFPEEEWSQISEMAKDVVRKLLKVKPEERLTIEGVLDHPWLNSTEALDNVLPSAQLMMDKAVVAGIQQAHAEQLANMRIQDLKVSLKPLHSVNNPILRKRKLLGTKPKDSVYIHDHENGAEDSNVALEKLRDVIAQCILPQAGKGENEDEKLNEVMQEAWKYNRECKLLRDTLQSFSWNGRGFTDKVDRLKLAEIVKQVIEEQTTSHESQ

SMILES: CC(C)(C)[C@@H](NC(=O)c1c[nH]c2ncc(C3CC3)nc12)C(=O)N1CC(C#N)C1
- inhibition (Homo sapiens): 67%

SMILES: Cn1c(=O)n([C@@H]2CC[C@@H](O)c3ccccc32)c2cc(-n3cnc4ccc(C#N)cc43)ccc21
- IC50 [1]: 0.9 nM

SMILES: CC(C)(O)C(=O)N1CCN(c2ccc(C(F)(F)F)c(C3=C(c4c[nH]c5ccccc45)C(=O)NC3=O)c2)CC1
- IC50 (Protein kinase C (PKC)): < 1000 nM
- IC50 [40]: < 1000 nM

More lines, main results first:

- IC50 [1]: 3 nM
- IC50 [2]: 1250 nM
- IC50 [3]: 3100 nM
- IC50 [4]: 9400 nM
- IC50 [5]: 2 nM
- IC50 [6]: 5600 nM
- IC50 [7]: 7400 nM
- IC50 [8]: 7800 nM
- IC50 [9]: 7100 nM
SMILES: C=CC(=O)Nc1nc2cnc3[nH]ccc3c2n1C

- inhibition [10]: 57%
- inhibition [11]: 100%
- inhibition [12]: 52%
- inhibition [13]: 60%
- inhibition [14]: 3%
- inhibition [15]: 48%
- inhibition [16]: 40%
- inhibition [17]: 22%
- inhibition [18]: 34%
- inhibition [19]: 49%
- inhibition [20]: 54%
- inhibition [21]: 60%
- inhibition [22]: 100%
- inhibition [23]: 100%
- inhibition [24]: 61%
- inhibition [25]: 31%
- inhibition [26]: 60%
- inhibition [27]: 48%
- inhibition [28]: 61%
- inhibition [29]: 26%
- inhibition [30]: 40%
- inhibition [31]: 51%
- inhibition [32]: 60%
- inhibition [33]: 100%
- inhibition [34]: 3%
SMILES: CC1CCCCC1n1c(-c2ccc(C=C(C#N)C(=O)N(C)C)o2)nc2cnc3[nH]ccc3c21 (mixture of isomers)
- inhibition (CD4+ve Th [35]): Active
- inhibition (CD4+ve Th [36]): inactive
- inhibition (CD4+ve Th [37]): inactive
- inhibition at 0.3 µM (cells [38]): 100%
- inhibition at 0.3 µM (cells [39]): 100%

- IC50 [1]: 7 nM
SMILES: CN(C)C/C=C/C(=O)Nc1nc2cnc3[nH]ccc3c2n1C

- IC50 [41]: 660 nM
- inhibition [42]: 65%
- inhibition [43]: 100%
- inhibition [44]: 100%
- inhibition [45]: 135%
- inhibition [46]: 135%
- inhibition [47]: 62%
- inhibition [48]: 133%
- inhibition [49]: 100%
- inhibition [34]: 11%
- inhibition [50]: 142%
- inhibition [51]: 53%
- inhibition [52]: 100%
- inhibition [53]: 100%
- inhibition [54]: 100%
- inhibition [55]: 100%
- inhibition [56]: 100%
- inhibition [57]: 100%
- inhibition [58]: 100%
- inhibition [59]: 145%
- inhibition [60]: 148%
- inhibition [61]: 100%
- inhibition [62]: 141%
- inhibition [63]: Active
- inhibition [64]: Active
SMILES: CN(C)C(=O)C(C#N)=Cc1ccc(-c2nc3cnc4[nH]ccc4c3n2C2CCCCC2)o1 (mixture of isomers)
- inhibition (CD4+ve Th [35]): Active
- inhibition (CD4+ve Th [36]): inactive
- inhibition (CD4+ve Th [37]): inactive
- inhibition at 0.3 µM (cells [38]): 100%
- inhibition at 0.3 µM (cells [39]): 100%
